From US10343977B2, “Tetrahydro-isohumulone derivatives, methods of making and using” (KINDEX PHARMACEUTICALS, INC., priority 2012, dated 2019) come the findings set out here.

What all share (assay type): cell-based
For experiment [1], the system named is LPS-mediated prostaglandin E2 (PGE2) production in RAW264.7 cells. The experiment is described as follows: LPS-mediated PGE2 production in RAW264.7 murine macrophage model. Particulars: Mus musculus, RAW264.7, 6 h, LPS 1 μg/ml, NI = no inhibition. How it is done: (§1) THIAA derivatives synthesized in Examples 1-19 were dissolved in dimethyl sufoxide (DMSO) and stored at −20° C. LPS was purchased from Sigma Chemicals (St. Louis, Miss.).
(§2) The effect of the THIAA derivatives on LPS-mediated prostaglandin E2 (PGE2) and nitric oxide (NO) production was evaluated in a RAW264.7 murine macrophage model. The RAW 264.7 cell line was purchased from ATCC (Manassas, Va.) and maintained according to their instructions. Cells were grown and subcultured in 96-well plates at a density of 8×10^4 cells per well, and reached 80-90% confluence the next day. THIAA derivatives were added to the cells in serum-free medium at a final concentration of 0.1% DMSO. Following one hour of incubation with the THIAA derivatives, LPS (1 μg/ml) or DMEM medium alone was added to the cells and incubation was continued for 6 hours. Stimulation of RAW 264.7 cells with LPS (1 μg/ml) for 6 hours activated the production of PGE2 and NO. Supernatant media was collected for measurement of PGE2 levels. For NO, incubations were continued overnight. Supernatant media was collected for measurement of NO levels after 16 hours of stimulation. PGE2 levels were measured using assay kits from Assay Designs, (Ann Arbor, Mich.) and NO levels were measured using assay kits from Cayman Chemicals (Ann Harbor, Mich.).
(§3) Results are summarized in Table 2, with data represented as % inhibition of inflammatory mediator production.

The target of a further experiment is T1, PPARα (Homo sapiens, UniProt Q07869).
T1 sequence (Q07869 1-468): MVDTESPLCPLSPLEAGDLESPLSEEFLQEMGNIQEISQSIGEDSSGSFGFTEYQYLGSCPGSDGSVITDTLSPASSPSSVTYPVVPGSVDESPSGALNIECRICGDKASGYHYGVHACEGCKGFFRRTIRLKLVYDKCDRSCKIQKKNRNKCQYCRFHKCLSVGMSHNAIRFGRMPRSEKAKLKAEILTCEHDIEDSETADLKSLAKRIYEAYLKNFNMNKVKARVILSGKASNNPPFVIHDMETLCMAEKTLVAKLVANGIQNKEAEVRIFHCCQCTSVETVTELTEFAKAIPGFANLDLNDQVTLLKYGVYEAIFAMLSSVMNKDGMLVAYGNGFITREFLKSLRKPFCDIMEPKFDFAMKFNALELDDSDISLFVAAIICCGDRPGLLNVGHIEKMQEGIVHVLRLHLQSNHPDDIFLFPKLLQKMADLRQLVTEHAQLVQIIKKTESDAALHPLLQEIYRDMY
The experiment is described as follows: PPARα reporter assay (INDIGO Biosciences). Particulars: luciferase reporter cells, 20 hours; for Emax at 12.5 µM / PPARα % GW590735 (20.6 nM): 12.5 μM test compound, activity compared to GW590735; for Emax at 12.5 µM: read-out: PPARα % GW590735 (20.6 nM). Here is the method: (§4) The functional effect of THIAA derivatives on PPARα and PPARγ activity was evaluated using a PPAR reporter assay (INDIGO Biosciences, Pa.). This assay utilizes non-human mammalian cells engineered to provide constitutive high level expression of PPARα, or PPARγ and containing a luciferase report gene specific to the appropriate PPAR. Following activation by agonist binding, PPAR induces expression of the luciferase reporter gene. Luciferase activity therefore provides a surrogate for measuring PPAR activity in agonist-treated cells.
(§5) 0.1% DMSO was used as a solvent control for each assay. Plates were incubated for 20 hours in a humidified incubator at 37° C. and 5% CO2. After incubation, the cell medium was discarded and the cells were treated with 100 μL of luciferase detection reagent for 15 minutes. Plates were analyzed using a luminometer (Victor2, Perkin Elmer). Average relative light unit (RLU) and standard deviation were measured.
On the technique in general: A reporter such as luciferase makes a cellular process visible.

The subject of experiment [2] is LPS-mediated MCP-1 production in THP-1 cells. The experiment is described as follows: LPS-mediated MCP-1 production in THP-1 cells. Conditions: Homo sapiens; for inhibition at 12.5 µM: 12.5 μM test compound, THP-1 cells, LPS 1 μg/ml, NI = no inhibition. Here is the method: as §1
(§6) The effect of the THIAA derivatives on LPS-mediated MMP-9, IL-1β, ([…], MCP-1, RANTES, and MIP-1α was evaluated in THP-1 cells. Stimulation of THP-1 cells with LPS (1 μg/ml) activated the production of MMP-9, IL-1β, MCP-1, RANTES, and MIP-1α.
as §3

In experiment [3] the test system is LPS-mediated MIP-1α production in THP-1 cells. The experiment in a line: LPS-mediated MIP-1α production in THP-1 cells. Conditions: Homo sapiens; for inhibition at 12.5 µM: 12.5 μM test compound, THP-1 cells, LPS 1 μg/ml, NI = no inhibition. Here is the method:
as §1, §6, §3

The subject of experiment [4] is LPS-mediated RANTES production in THP-1 cells. The experiment is described as follows: LPS-mediated RANTES production in THP-1 cells. Conditions: Homo sapiens; for inhibition at 12.5 µM: 12.5 μM test compound, THP-1 cells, LPS 1 μg/ml, NI = no inhibition. How it is done: as §1, §6, §3
The target in a further experiment is T2, PPARγ (Homo sapiens, UniProt P37231).
T2 sequence (P37231 1-505): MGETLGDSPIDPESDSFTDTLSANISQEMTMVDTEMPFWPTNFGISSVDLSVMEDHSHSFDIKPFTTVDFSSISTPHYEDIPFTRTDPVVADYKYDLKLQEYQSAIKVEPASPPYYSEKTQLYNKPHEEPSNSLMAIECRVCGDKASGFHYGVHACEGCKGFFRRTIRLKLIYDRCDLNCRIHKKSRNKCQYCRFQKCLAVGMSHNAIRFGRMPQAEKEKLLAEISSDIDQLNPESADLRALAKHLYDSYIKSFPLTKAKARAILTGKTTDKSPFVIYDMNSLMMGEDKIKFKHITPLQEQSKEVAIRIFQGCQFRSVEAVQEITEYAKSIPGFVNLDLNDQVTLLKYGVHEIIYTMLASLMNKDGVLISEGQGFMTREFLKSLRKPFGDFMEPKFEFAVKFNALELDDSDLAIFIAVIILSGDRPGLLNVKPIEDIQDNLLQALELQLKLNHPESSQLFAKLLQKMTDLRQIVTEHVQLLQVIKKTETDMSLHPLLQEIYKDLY
The experiment in a line: PPARγ reporter assay (INDIGO Biosciences). Conditions: 20 h, read-out: PPARγ % rosiglitazone (500 nM), 12.5 μM test compound; luciferase reporter cells, 20 hours; activity compared to rosiglitazone. How it is done: as §4, §5

Experiment [5] deals with LPS-mediated nitric oxide (NO) production in RAW264.7 cells. The experiment in a line: LPS-mediated NO production in RAW264.7 murine macrophage model. Conditions: Mus musculus, RAW264.7, 16 h, LPS 1 μg/ml; for inhibition at 12.5 µM: 12.5 μM test compound, NI = no inhibition. How it is done: as §1, §2, §3
Experiment [6] concerns LPS-mediated inflammatory mediators in RAW264.7 and THP-1 cells. The experiment is described as follows: Mean inhibition across all six inflammatory mediators. Conditions: for inhibition at 12.5 µM: 12.5 μM test compound. How it is done:
as §2, §6, §3
Mean inhibition across all six inflammatory mediators was calculated for each of the THIAA derivatives.

In experiment [7] the test system is LPS-mediated IL-6 production in THP-1 cells. The experiment is described as follows: LPS-mediated IL-6 production in THP-1 cells. Conditions: Homo sapiens; for inhibition at 12.5 µM: 12.5 μM test compound, THP-1 cells, LPS 1 μg/ml, NI = no inhibition. Here is the method:
as §1, §6, §3

The inhibition is how much of the control response was suppressed. Lower therefore signals a weak effect. With `CC(C)CCC(=O)[C@@]1(O)C(O)=C(C(=O)CC(C)C)C(=O)[C@H]1CCC(C)C` [KDT700, (4S,5S)-3,4-dihydroxy-2-(3-methylbutanoyl)-5-(3-methylbutyl)-4-(4-methylpentanoyl)cyclopent-2-en-1-one], the inhibition at 12.5 µM in [1] (12.5 μM test compound) is < 20%; in experiment [2], 88%; in [3], 36%; in [4] it was 64%; in [5], < 0%; in [6] it was 34%. The inhibition at 12.5 µM in experiment [7] is < 20%. Also, the Emax at 12.5 µM on PPARα and on PPARγ was < 5% throughout.
Take `CC(C)CCC(=O)[C@@]1(OC(=O)CC(C)(C)C)C(O)=C(C(=O)CC(C)C)C(=O)[C@@H]1CCC(C)C` [KDT0034, (1S,5R)-2-hydroxy-3-(3-methylbutanoyl)-5-(3-methylbutyl)-1-(4-methylpentanoyl)-4-oxocyclopent-2-en-1-yl 3,3-dimethylbutanoate]: the “PPARα % GW590735 (20.6 nM)” value on PPARα is “dual PPARα and PPARγ agonists”. For the same molecule, the Emax at 12.5 µM at PPARα is 9%; on PPARγ, 5%. Further, the inhibition at 12.5 µM in experiment [2] was 100%; in experiment [3], 94%; in experiment [4], 98%; in experiment [5], > 50%; in experiment [6], ~90%; in [7], 84%.
As for `CC(C)CCC(=O)[C@@]1(OC(=O)C(C)(C)C)C(O)=C(C(=O)CC(C)C)C(=O)[C@@H]1CCC(C)C` [KDT0033, (1S,5R)-2-hydroxy-3-(3-methylbutanoyl)-5-(3-methylbutyl)-1-(4-methylpentanoyl)-4-oxocyclopent-2-en-1-yl 2,2-dimethylpropanoate], the “PPARα % GW590735 (20.6 nM)” value at PPARα was “no effect”. Moreover, the Emax at 12.5 µM is < 5% at PPARα and ≥ 5% at PPARγ. Moreover, the inhibition at 12.5 µM in experiment [2] is 100%; in experiment [3] it was 95%; in [4] it was 97%; in experiment [5] it was > 50%; in [6], ~90%; in experiment [7] it was 87%.
`Cc1nc(-c2ccc(C(F)(F)F)cc2)sc1C(=O)NCc1ccc(OC(C)(C)C(=O)O)cc1` [GW590735, reference compound]: the “PPARα activity (positive control)” value on PPARα (GW590735 21-5000 nM) is recorded as “increased the activity”.
Consider `CC(C)CCC(=O)[C@@]1(OC(=O)OCC(C)C)C(O)=C(C(=O)C(C)C)C(=O)[C@@H]1CCC(C)C` [KDT0037, (1S,5R)-2-hydroxy-5-(3-methylbutyl)-1-(4-methylpentanoyl)-3-(2-methylpropanoyl)-4-oxocyclopent-2-en-1-yl 2-methylpropyl carbonate], for which the “PPARα % GW590735 (20.6 nM)” value at PPARα is “no effect”. Also, the Emax at 12.5 µM at PPARα was < 5%. The inhibition at 12.5 µM in [2] came out at 98%; in [3], 22%; in experiment [4] it was 83%; in [6] it was 72%; in [7], 61%.
On to `CN(CCOc1ccc(CC2SC(=O)NC2=O)cc1)c1ccccn1` (stereo not drawn) [Rosiglitazone, reference compound], for which the inhibition at 10 µM in experiment [1] (10 μM (rosiglitazone)) is < 0%; in [2] (THP-1), < 0%; in experiment [3] (THP-1), < 0%; in [4] (THP-1), 24%; in experiment [5] (10 μM (rosiglitazone)), 6%; in experiment [6] (10 μM (rosiglitazone)), < 20%. For the same molecule, in experiment [7] (THP-1), the inhibition at 10 µM was < 0%.
